Measured values as given in ChEMBL document CHEMBL1158845, “Antineoplastic agents. 386. Isolation of sesterstatins 1-3 from the marine sponge Hyrtios erecta” (1998).
In brackets after ≈: the same amount, converted by molar mass. Activity calls are given as the source filed them. No cut-off for these calls is given here.

Key:
[1] = tested on: Staphylococcus aureus; assay: Antibacterial activity against Staphylococcus aureus at 100 ug/disk by disk susceptibility test; format: functional, organism-based
[2] = tested on: Neisseria gonorrhoeae; assay: Antibacterial activity against Neisseria gonorrhoeae at 100 ug/disk by disk susceptibility test; format: functional, organism-based
[3] = tested on: Micrococcus luteus; assay: Antibacterial activity against Micrococcus luteus at 100 ug/disk by disk susceptibility test; format: functional, organism-based
[4] = tested on: P388; assay: Cytotoxicity against mouse P388 cells; format: functional; conditions: read-out: ED50 (the source's name)
[5] = tested on: Cryptococcus neoformans; assay: Antimicrobial activity against Cryptococcus neoformans at 100 ug/disk by disk susceptibility test; format: functional, organism-based
[6] = tested on: Staphylococcus aureus; assay: Antibacterial activity against Staphylococcus aureus by disk susceptibility test; format: functional

Row | Compound | Activity [1] | Activity [2] | Activity [3] | EC50 [4] [µg/mL] | Activity [5] | MIC [6] [µg]
1 | CC1(C)[C@@H](O)CC[C@]2(C)[C@H]3C[C@@H](O)[C@]4(C)C5=C(CC[C@H]4[C@]3(C)CC[C@@H]12)COC5=O [SESTERSTATIN 1] | inactive | inactive | inactive | 0.46 (≈ 1.14 µM) | inactive | –
2 | C[C@]1(CO)CCC[C@]2(C)[C@H]3C[C@@H](O)[C@]4(C)C5=C(CC[C@H]4[C@]3(C)CC[C@@H]12)COC5=O [SESTERSTATIN 2] | – | inactive | inactive | 4.2 (≈ 10.4 µM) | inactive | 50
3 | C[C@@]1(CO)CCC[C@]2(C)[C@H]3C[C@@H](O)[C@]4(C)C5=C(CC[C@H]4[C@]3(C)CC[C@@H]12)COC5=O [SESTERSTATIN 3] | inactive | inactive | inactive | 4.3 (≈ 10.7 µM) | inactive | –
